Experimental data published in PMC4937633 (Journal of Drug Assessment, 2014).
Values joined by “and” are separate entries in the source; they are usually repeats but may differ in a detail not shown here. Equal values may be shown once. Read-outs that look alike come from different tables or passages of the source.

Legend:
mouse mdr1a = target: T1, mouse mdr1a (Mus musculus, UniProt P21447); assay: P-glycoprotein substrate test, mouse mdr1a transfected LLCPK cells (L-Mdr1a); format: in vitro ADME; details: in vitro
T1 construct: host or cells: LLCPK (porcine kidney epithelial cells), L-Mdr1a
Source text: (§1) Wild type and transfected MDCKII (ATCC #CCL34, cocker spaniel kidney epithelial cell line) and the LLCPK (ATCC #CL-101, porcine kidney epithelial cell line) cell lines were obtained from Dr A. Schinkel (The Netherlands Cancer Institute, Amsterdam, The Netherlands) and used under license agreement. […] The non-transfected wild-type cell lines MDCKII or LLCPK were used as controls. […] More assay details were recently published.

[1] = In vitro cell permeability; format: in vitro ADME
Source text: as §1

human MDR1 = target: T2, human MDR1 (Homo sapiens, UniProt P08183); assay: P-glycoprotein substrate test, human MDR1 transfected MDCKII cells (M-MDR1); format: in vitro ADME; details: in vitro; M-MDR1 and L-MDR1 cells
T2 construct: host or cells: MDCKII (canine kidney epithelial cells), M-MDR1
Source text: as §1

primary rat hepatocytes = assay: Uptake by primary rat hepatocytes; format: in vitro ADME; details: data not shown
[2] = system: Type 2 diabetes animal models; parameters: method as in PMID 17073841, PMID 17981667; details: dose-dependent; cited from earlier work
[3] = Clinical safety and tolerability assessments; format: in vivo, human
Source text: Safety assessments during the treatment period included all adverse events, clinical laboratory safety tests (days 3, 9, and 14), urine chemistry (days 1, 10, and 15), 24-h ECGs (days 1, 10, and 15), and Lead-2 telemetry (days 1, 10, and 15). Subjects were resident in the unit on four occasions (day – 1 to day 3, day 6 to day 8 [morning], day 9 [evening] to day 12, and day 14 to day 17). Ambulatory visits were also required on day 8 (evening) and day 9 (morning) for pharmacokinetic sampling.
All adverse events (AEs) occurring during the clinical study were recorded and their intensity was assessed by investigators as mild, moderate, or severe. AEs occurring before first dosing were reported as baseline signs and symptoms. […] Investigators also assessed each AE’s relationship to treatment as unrelated, remote, possible, or probable. Factors used to determine the relationship to treatment included the temporal association of the AE with administration of study drug, the known pattern of response to the suspected drug, and re-appearance of the AE on re-challenge with the drug.
Vital signs, systolic and diastolic blood pressure, heart rate, and oral temperature were assessed after the subject had been in a supine position for at least 5 min. Vital signs were recorded at the following time-points: Screening visit, treatment period (days 1, 10, and 15 pre-dose and at 2, 6, and 12 h post-dose, and pre-dose only on days 3, 7, and 11–14), and at the follow-up visit. In addition, 12 lead-ECGs were recorded at screening visit day – 1, on days 1, 10, and 15 (pre-dose and at 2, 6, and 12 h post-dose) and at the follow-up visit. Heart rate, QT, QTcB, PR, and QRS were captured directly from the ECG machine. QTcF and RR were derived. T-wave morphology, the occurrence of U-waves, and any other observed abnormalities were additionally recorded. […] The CRF captured whether the results were normal or abnormal.

P-glycoprotein (Pgp) = target: T3, P-glycoprotein (Pgp) (Homo sapiens, UniProt P08183); assay: Pgp inhibition potential with digoxin as model substrate (M-MDR1 cells); format: in vitro ADME; details: in vitro
T3 construct: host or cells: transfected MDCKII or LLCPK cells
Source text: The non-transfected wild-type cell lines MDCKII or LLCPK were used as controls. […] More assay details were recently published.

CHO cells = assay: Uptake in CHO cells; format: in vitro ADME; details: data not shown
[4] = Clinical pharmacokinetics of carmegliptin (plasma and urine) alone or with verapamil; format: in vivo, human; details: for AUC(0-inf) / Cmax / half-life / AUC(0-t) / Vd/F / Tmax: plasma; for Vd/F: read-out: Vz/F; for Tmax: median (range)
Description: All urine produced by subjects during each sampling interval was collected in pre-weighed polyethylene containers. The urine was refrigerated (2–8°C) between collections and, at the end of each collection interval, an aliquot of ∼10 mL was transferred to polyethylene tubes.
Plasma and urine samples were analyzed for carmegliptin by high-performance liquid chromatography combined with tandem mass spectrometric detection at F. Hoffmann-La Roche Ltd, Basel, Switzerland. The lower limit of quantification was 1 ng/mL for plasma and 20 ng/mL for urine.

[5] = system: primary human hepatocytes; assay: Uptake by primary human hepatocytes; format: in vitro ADME; details: data not shown
Pgp = details: in vitro; cited from earlier work
[6] = Clinical pharmacokinetics of verapamil and norverapamil alone or with carmegliptin; details: male, human, plasma, oral, 80 mg
[7] = acute verapamil (day 10) vs day 1
[8] = carmegliptin 150 mg + chronic verapamil 80 mg t.i.d., day 15, geometric mean (CV%)
[9] = chronic verapamil (day 15) vs day 1
[10] = male, human, oral, 150 mg, carmegliptin 150 mg single dose alone, day 1, geometric mean (CV%)
[11] = male, human, oral, carmegliptin 150 mg + acute verapamil 80 mg t.i.d., day 10, geometric mean (CV%)
[12] = male, human, oral, carmegliptin 150 mg + chronic verapamil 80 mg t.i.d., day 15, geometric mean (CV%)

T2 sequence (P08183 whole entry): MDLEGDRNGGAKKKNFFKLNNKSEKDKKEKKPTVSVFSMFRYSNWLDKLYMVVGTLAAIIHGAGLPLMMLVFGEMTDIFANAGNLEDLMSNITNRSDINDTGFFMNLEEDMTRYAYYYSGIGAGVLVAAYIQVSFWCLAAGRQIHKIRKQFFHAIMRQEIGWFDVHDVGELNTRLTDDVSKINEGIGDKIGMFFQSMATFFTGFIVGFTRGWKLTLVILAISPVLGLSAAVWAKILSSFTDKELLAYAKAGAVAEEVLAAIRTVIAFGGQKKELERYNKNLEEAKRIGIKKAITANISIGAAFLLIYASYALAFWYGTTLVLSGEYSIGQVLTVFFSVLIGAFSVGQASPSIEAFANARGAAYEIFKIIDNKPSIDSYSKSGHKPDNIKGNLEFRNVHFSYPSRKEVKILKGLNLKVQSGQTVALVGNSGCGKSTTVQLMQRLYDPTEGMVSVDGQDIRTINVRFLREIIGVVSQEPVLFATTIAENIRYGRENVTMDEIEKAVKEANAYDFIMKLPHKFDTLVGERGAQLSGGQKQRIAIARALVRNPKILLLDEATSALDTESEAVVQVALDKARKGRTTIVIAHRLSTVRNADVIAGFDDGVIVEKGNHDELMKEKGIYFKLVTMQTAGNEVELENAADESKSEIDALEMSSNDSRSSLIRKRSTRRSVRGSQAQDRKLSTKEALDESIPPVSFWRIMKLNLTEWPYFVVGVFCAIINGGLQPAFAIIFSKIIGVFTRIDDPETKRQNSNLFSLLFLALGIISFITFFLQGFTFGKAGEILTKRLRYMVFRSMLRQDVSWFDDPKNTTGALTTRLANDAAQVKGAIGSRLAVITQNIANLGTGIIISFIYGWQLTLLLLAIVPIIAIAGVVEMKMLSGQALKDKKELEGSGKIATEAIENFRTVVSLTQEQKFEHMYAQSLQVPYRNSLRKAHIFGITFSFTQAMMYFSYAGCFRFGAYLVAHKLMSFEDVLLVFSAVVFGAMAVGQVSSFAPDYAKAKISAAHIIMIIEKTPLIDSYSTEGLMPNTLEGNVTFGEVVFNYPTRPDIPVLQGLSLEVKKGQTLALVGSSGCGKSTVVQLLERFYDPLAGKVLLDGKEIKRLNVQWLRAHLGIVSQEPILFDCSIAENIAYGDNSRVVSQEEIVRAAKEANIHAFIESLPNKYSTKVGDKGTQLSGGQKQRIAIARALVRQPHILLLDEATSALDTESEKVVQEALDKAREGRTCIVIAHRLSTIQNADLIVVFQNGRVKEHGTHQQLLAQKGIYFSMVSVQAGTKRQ
T3 sequence (P08183 whole entry): as above
T1 sequence (P21447 whole entry): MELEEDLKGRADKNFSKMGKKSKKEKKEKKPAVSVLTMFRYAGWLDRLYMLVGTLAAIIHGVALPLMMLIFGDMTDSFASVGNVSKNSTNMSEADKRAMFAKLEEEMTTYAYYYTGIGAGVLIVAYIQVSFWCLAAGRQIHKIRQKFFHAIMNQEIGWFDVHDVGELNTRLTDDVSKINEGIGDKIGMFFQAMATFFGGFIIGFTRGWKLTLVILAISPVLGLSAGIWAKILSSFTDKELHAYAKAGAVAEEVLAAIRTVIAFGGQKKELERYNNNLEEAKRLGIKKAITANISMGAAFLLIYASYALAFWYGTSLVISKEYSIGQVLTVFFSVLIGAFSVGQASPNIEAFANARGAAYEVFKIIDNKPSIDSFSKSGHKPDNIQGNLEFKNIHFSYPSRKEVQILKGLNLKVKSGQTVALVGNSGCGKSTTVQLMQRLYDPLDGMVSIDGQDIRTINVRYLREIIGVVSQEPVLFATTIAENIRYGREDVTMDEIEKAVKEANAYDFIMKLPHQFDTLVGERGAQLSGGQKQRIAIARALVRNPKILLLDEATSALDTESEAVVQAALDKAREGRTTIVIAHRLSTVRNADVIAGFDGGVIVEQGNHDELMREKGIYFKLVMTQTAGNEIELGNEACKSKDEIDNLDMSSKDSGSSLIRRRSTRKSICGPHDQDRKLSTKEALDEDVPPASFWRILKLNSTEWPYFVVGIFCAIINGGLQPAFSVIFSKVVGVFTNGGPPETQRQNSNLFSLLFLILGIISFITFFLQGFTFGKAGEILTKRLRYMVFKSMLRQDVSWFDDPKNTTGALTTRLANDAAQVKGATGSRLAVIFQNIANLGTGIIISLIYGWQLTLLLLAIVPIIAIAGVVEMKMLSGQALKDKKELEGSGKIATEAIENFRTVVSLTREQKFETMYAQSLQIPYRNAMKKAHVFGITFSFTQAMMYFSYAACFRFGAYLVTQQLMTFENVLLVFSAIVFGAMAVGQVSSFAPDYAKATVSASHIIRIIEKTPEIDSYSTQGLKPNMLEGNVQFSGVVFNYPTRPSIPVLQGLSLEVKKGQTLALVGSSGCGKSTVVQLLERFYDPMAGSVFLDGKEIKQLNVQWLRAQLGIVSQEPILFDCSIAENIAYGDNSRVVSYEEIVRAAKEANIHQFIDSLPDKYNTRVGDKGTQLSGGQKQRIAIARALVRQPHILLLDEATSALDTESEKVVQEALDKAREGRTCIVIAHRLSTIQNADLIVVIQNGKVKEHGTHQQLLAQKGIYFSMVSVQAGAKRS

Question: What does the source list for `COc1cc2c(cc1OC)[C@@H]1C[C@H](N)[C@@H](N3C[C@@H](CF)CC3=O)CN1CC2` [Carmegliptin]?
Answer: substrate of rodent mdr1a (mouse mdr1a): good substrate; cell permeability [1]: low cell permeability; substrate of human MDR1 / human Pgp (human MDR1): good substrate; uptake process (primary rat hepatocytes): mainly passive diffusion; glucose tolerance [2]: improved glucose tolerance; subjects with prolonged PQ(PR) intervals (>200 ms) ([3]; after carmegliptin alone (day 1)): one; tolerability ([3]; combination of carmegliptin and verapamil): generally well tolerated; changes in vital signs, ECGs, or laboratory test variables attributed to treatment ([3]; healthy male volunteers): No changes; tolerability ([3]; healthy male volunteers, carmegliptin 150 mg): generally well tolerated; inhibitor of P-glycoprotein (Pgp) (P-glycoprotein (Pgp)): not an inhibitor; uptake process (CHO cells): mainly passive diffusion; AUCinf higher than carmegliptin alone [4, 7]: 19%; Cmax higher than carmegliptin alone [4, 7]: 48%; maximum plasma levels attained earlier than carmegliptin alone [4, 7]: ~2.25 h; Fe (fraction of dose excreted unchanged in urine over 48 h) ([4]; carmegliptin 150 mg + acute verapamil 80 mg t.i.d., day 10, geometric mean (CV%)): 33% and 33.1% and 33.1 (17.7) %; CLr (renal clearance) [4, 8]: 13.6 (14.7) L/h; Fe (fraction of dose excreted unchanged in urine over 48 h) [4, 8]: 38.7% and 38.7 (18.1) %; Fe (fraction of dose excreted unchanged in urine over 48 h) ([4]; carmegliptin 150 mg single dose alone, day 1, geometric mean (CV%)): 26% and 26.0 (22.7) %; AUCinf higher than carmegliptin alone [4, 9]: 29%; Cmax higher than carmegliptin alone [4, 9]: 53%; maximum plasma levels attained earlier than carmegliptin alone [4, 9]: ~1.5 h; peak concentrations occurred earlier ([4]; co-administered with verapamil, acute and chronic): 1.5 to 2.25 h; CL renal ([4]; male, human, plasma and urine, oral, 150 mg, read-out: CLr (renal clearance) (converted)): 215 mL/min; AUC(0-inf) [4, 10]: 3570 ng·h/mL; Cmax [4, 10]: 342 ng/mL; half-life [4, 10]: 22.4 h; AUC(0-t) ([4]; male, human, oral, 150 mg, carmegliptin 150 mg single dose alone, day 1, geometric mean (CV%), read-out: AUC0–24): 2410 ng·h/mL; AUC(0-t) ([4]; male, human, oral, 150 mg, carmegliptin 150 mg single dose alone, day 1, geometric mean (CV%), read-out: AUClast): 3010 ng·h/mL; Vd/F [4, 10]: 1360 L; Tmax ([4]; male, human, oral, 150 mg, carmegliptin 150 mg single dose alone, day 1): 3 h; AUC(0-inf) [4, 11]: 4250 ng·h/mL; Cmax [4, 11]: 505 ng/mL; half-life [4, 11]: 21.8 h; AUC(0-t) ([4]; male, human, oral, carmegliptin 150 mg + acute verapamil 80 mg t.i.d., day 10, geometric mean (CV%), read-out: AUC0–24): 2950 ng·h/mL; AUC(0-t) ([4]; male, human, oral, carmegliptin 150 mg + acute verapamil 80 mg t.i.d., day 10, geometric mean (CV%), read-out: AUClast): 3650 ng·h/mL; Vd/F [4, 11]: 1110 L; Tmax ([4]; male, human, oral, carmegliptin 150 mg + acute verapamil 80 mg t.i.d., day 10): 0.75 h; AUC(0-inf) [4, 12]: 4590 ng·h/mL; Cmax [4, 12]: 522 ng/mL; half-life [4, 12]: 14.4 h; AUC(0-t) ([4]; male, human, oral, carmegliptin 150 mg + chronic verapamil 80 mg t.i.d., day 15, geometric mean (CV%), read-out: AUC0–24): 3620 ng·h/mL; AUC(0-t) ([4]; male, human, oral, carmegliptin 150 mg + chronic verapamil 80 mg t.i.d., day 15, geometric mean (CV%), read-out: AUClast): 4280 ng·h/mL; Vd/F [4, 12]: 678 L; Tmax ([4]; male, human, oral, carmegliptin 150 mg + chronic verapamil 80 mg t.i.d., day 15): 1.5 h; uptake process [5]: mainly passive diffusion

Question: With `COc1ccc(CCNCCCC(C#N)(c2ccc(OC)c(OC)c2)C(C)C)cc1OC` (stereo not shown) [Norverapamil] as the compound, how does the “effect on Pgp activity” value (Pgp) read?
Answer: inhibitory effects on Pgp activity

Question: What about the AUC(0-t) [6] of the same compound?
Answer: 203 ng·h/mL

Question: What about the Cmax [6] of the same compound?
Answer: 63.8 ng/mL

Question: What about the Tmax [6] of the same compound?
Answer: 1 h
